Reference: ChEMBL document CHEMBL5365470, “Design, synthesis, and biological evaluation of THIQ as antidepressive agents” (Bioorg Med Chem Lett, 2023)

What was measured:
Mus musculus [1] = assay: Antidepressant activity in SPF ICR mouse assessed as decrease in immobility duration at 7 mg/kg, po via gavage administered daily for 7 days measured post-last dose by forced swimming test relative to control; type: functional; set-up: scale not given: the % may be the effect or the level left; details: time 7 day
Mus musculus [2] = assay: Antidepressant activity in SPF ICR mouse assessed as decrease in immobility duration at 7 mg/kg, po via gavage administered daily for 7 days measured post-last dose by tail suspension test relative to control; type: functional; set-up: scale not given: the % may be the effect or the level left; details: time 7 day
[3] = Cytoprotective activity against corticosterone-induced […] PC12 cell damage assessed as cell viability at 5 uM (reference value: 51.13 to 51.51 %); type: functional; details: PC-12, read-out: Activity
[4] = Toxicity in SPF ICR mouse assessed as body weight growth at 7 mg/kg, po via gavage administered daily for 7 days (reference value: 32.62 +/- 6.17 %); type: organism-based; details: in vivo, 168 h, time 7 day
[5] = Cytoprotective activity against corticosterone-induced […] PC12 cell damage assessed as cell viability at 50 uM (reference value: 51.13 to 51.51 %); type: functional; details: Rattus norvegicus, PC-12, read-out: Activity
[6] = Toxicity in SPF ICR mouse assessed as body weight at 7 mg/kg, po via gavage administered daily for 7 days measured on day 7 (reference value: 29.54 +/- 1.87 g); type: organism-based; details: in vivo, 168 h, time 7 day
[7] = Toxicity in SPF ICR mouse assessed as body weight at 7 mg/kg, po administered via gavage measured on day 1 (reference value: 22.24 +/- 0.9 g); type: organism-based; details: in vivo, 24 h, time 1 day
[8] = Toxicity in […] PC12 cells at 50 uM; type: cell-based, Rattus norvegicus; details: pc12, 50 µM
[9] = Cytoprotective activity against corticosterone-induced […] PC12 cell damage assessed as cell viability at 10 uM (reference value: 51.13 to 51.51 %); type: functional; details: PC-12, read-out: Activity
PC12 = assay: Cytoprotective activity against corticosterone-induced […] PC12 cell damage assessed as increase in cell survival; type: functional, cell-based; details: dose 5-50 µM
[10] = Cytoprotective activity against corticosterone-induced […] PC12 cell damage assessed as cell viability at 50 uM preincubated for 1 hr followed by corticosterone stimulation and measured after 24 hrs (reference value: 51.13 to 51.51 %); type: functional; details: PC-12, time 25 hrs, read-out: Activity
[11] = Cytoprotective activity against corticosterone-induced […] PC12 cells assessed as cell survival at 5 uM preincubated for 1 hr followed by corticosterone stimulation and measured after 24 hrs (reference value: 51.13 to 51.51 %); type: functional; details: PC-12, time 25 hrs, read-out: Activity
[12] = Cytoprotective activity against corticosterone-induced […] PC12 cells assessed as cell survival at 10 uM preincubated for 1 hr followed by corticosterone stimulation and measured after 24 hrs (reference value: 51.13 to 51.51 %); type: functional; details: PC-12, time 25 hrs, read-out: Activity

SMILES	viability at 50 µM [5] [%]	Activity [8]	other results
COc1ccc(CCN2CCc3cc(OC)c(OC)cc3C2)cc1	69.3	Non-Toxic	Activity (Mus musculus [1]): 57.65%; Activity (Mus musculus [2]): 65.85%; viability at 5 µM [3]: 49.1%; Activity [4]: 29.58%; Activity [6]: 27.5 g; Activity [7]: 21.3 g; viability at 10 µM [9]: 65%; Activity (PC12): Dose-Dependent Effect
COc1cc2c(cc1OC)CN(CCc1ccccc1)CC2	54.2	Non-Toxic	–
COc1cc2c(cc1OC)CN(CCc1ccc(O)cc1)CC2	50.4	Non-Toxic	–
COc1ccc(C(=O)N2CCc3cc(OC)c(OC)cc3C2)cc1	44.8	Toxic	–
COc1cc2c(cc1OC)CN(C(=O)c1ccc(C(F)(F)F)cc1)CC2	48.3	Toxic	–
COc1cc2c(cc1OC)CN(C(=O)c1cccs1)CC2	58.5	–	–
COc1cc2c(cc1OC)CN(Cc1ccc(F)cc1)CC2	49.5	Non-Toxic	–
COc1ccc(CN2CCc3cc(OC)c(OC)cc3C2)cc1	51.8	Non-Toxic	–
COc1cc2c(cc1OC)CN(C(=O)Cc1ccc(O)cc1)CC2	42.4	Toxic	–
COc1cc2c(cc1OC)CN(C(C)=O)CC2	37.2	Toxic	–
COc1cc2c(cc1OC)CN(CCc1ccc(F)cc1)CC2	38.2	–	–
COc1cc2c(cc1OC)CN(C(=O)c1ccncc1)CC2	51.2	–	–
COc1ccc(CC(=O)N2CCc3cc(OC)c(OC)cc3C2)cc1	51.9	–	–
COc1cc2c(cc1OC)CN(C(=O)c1ccc(F)cc1)CC2	49.6	Toxic	–
COc1ccc2c(c1O)-c1c(O)c(OC)cc3c1[C@H](C2)[N+](C)(C)CC3 [MAGNOFLORINE]	–	–	Activity (Mus musculus [1]): 68.61%; Activity (Mus musculus [2]): 65.65%; viability at 50 µM [10]: 48.6%; Activity [4]: 21.15%; Activity [6]: 29.44 g; viability at 5 µM [11]: 48.6%; Activity [7]: 24.21 g; viability at 10 µM [12]: 73.7%
COc1cc2c(cc1OC)CN(C(=O)C(C)(C)C)CC2	33.7	Toxic	–
COc1cc2c(cc1OC)CN(C(=O)c1ccc(OC(C)=O)cc1)CC2	48.4	Toxic	–
COc1cc2c(cc1OC)CN(C(=O)c1ccccc1)CC2	35.6	Toxic	–
COc1cc2c(cc1OC)CN(C(=O)c1ccc(O)cc1)CC2	39.8	Toxic	–
CCN1CCc2cc(OC)c(OC)cc2C1	58.9	Non-Toxic	–
COc1cc2c(cc1OC)CN(C=O)CC2	49.9	Toxic	–
COc1cc2c(cc1OC)CN(C)CC2	54.5	Non-Toxic	–
COc1cc2c(cc1OC)CNCC2	45.8	–	viability at 5 µM [3]: 65.7%; viability at 10 µM [9]: 57%
COc1cc2c(cc1OC)CN(C(=O)c1cc3ccccc3[nH]1)CC2	62.8	–	–
COc1cc2c(cc1OC)CN(Cc1ccccc1)CC2	49.6	Non-Toxic	–
COc1cc2c(cc1OC)CN(C(=O)c1ccccc1O)CC2	47.3	Toxic	–
COc1ccc(CCCN2CCc3cc(OC)c(OC)cc3C2)cc1	51.8	Non-Toxic	–
